Structures are written as SMILES.

We go through 1 compound from paper PMC10349134, “The RNA-binding protein LRPPRC promotes resistance to CDK4/6 inhibition in lung cancer” (Nature Communications, 2023).

In this experiment the target is T1, LRPPRC (endogenous, A549 cells) (Homo sapiens, UniProt P42704).
T1 construct: endogenous protein in A549 lung adenocarcinoma cells; no tag
Description: cellular thermal shift assay (CETSA), immunoblot. In kind it is cell-based. As to conditions: 40 μM GAA vs DMSO.

In the case of `Cc1cc2c(C(C)C)c(O)c(O)c(C=O)c2c(O)c1-c1c(C)cc2c(C(C)C)c(O)c(O)c(C=O)c2c1O` [GAA], the CETSA thermal stabilization result is “GAA could increase the thermal stabilization of LRPPRC”.
